Measurements taken from PubChem BioAssay AID2060627 (Molecular Pharmacology Branch, DTP, NCI, 2025).
One block for each compound: values may come before it.

Tested on: 156681-154-R-J1-PDC complex spheroid viability
Test: Anticancer human tumor 156681-154-R-J1-PDC patient-derived melanoma cell line growth inhibition [CLK]
Conditions: for IC50: curve of first compound; for viability, T/C: stronger effect = lower value
Procedure, shortened: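 Multi-cell-type spheroids combined patient-derived tumor cells with HUVEC endothelial cells and human mesenchymal stem cells. Paired agents were dosed in half-log steps down from about clinical Cmax, or from 10 microM where Cmax was unknown.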

[1] = second compound 0.0316 µM, first compound 0.0316 µM
[2] = second compound 0.0316 µM, first compound 0.1 µM
[3] = second compound 0.0316 µM, first compound 0.316 µM
[4] = second compound 0.0316 µM, first compound 1 µM
[5] = second compound 0.0316 µM, first compound 3.16 µM
[6] = second compound 0.0316 µM, first compound 10 µM
[7] = second compound 0.1 µM, first compound 0.0316 µM
[8] = second compound 0.1 µM, first compound 0.1 µM
[9] = second compound 0.1 µM, first compound 0.316 µM
[10] = second compound 0.1 µM, first compound 1 µM
[11] = second compound 0.1 µM, first compound 3.16 µM
[12] = second compound 0.1 µM, first compound 10 µM
[13] = second compound 0.316 µM, first compound 0.0316 µM
[14] = second compound 0.316 µM, first compound 0.1 µM
[15] = second compound 0.316 µM, first compound 0.316 µM
[16] = second compound 0.316 µM, first compound 1 µM
[17] = second compound 0.316 µM, first compound 3.16 µM
[18] = second compound 0.316 µM, first compound 10 µM
[19] = second compound 1 µM, first compound 0.0316 µM
[20] = second compound 1 µM, first compound 0.1 µM
[21] = second compound 1 µM, first compound 0.316 µM
[22] = second compound 1 µM, first compound 1 µM
[23] = second compound 1 µM, first compound 3.16 µM
[24] = second compound 1 µM, first compound 10 µM
[25] = second compound 3.16 µM, first compound 0.0316 µM
[26] = second compound 3.16 µM, first compound 0.1 µM
[27] = second compound 3.16 µM, first compound 0.316 µM
[28] = second compound 3.16 µM, first compound 1 µM
[29] = second compound 3.16 µM, first compound 3.16 µM
[30] = second compound 3.16 µM, first compound 10 µM
[31] = second compound 10 µM, first compound 0.0316 µM
[32] = second compound 10 µM, first compound 0.1 µM
[33] = second compound 10 µM, first compound 0.316 µM
[34] = second compound 10 µM, first compound 1 µM
[35] = second compound 10 µM, first compound 3.16 µM
[36] = second compound 10 µM, first compound 10 µM
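Note: spheroids exposed to the agents for seven days.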
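Throughout, for viability, T/C: 100% = DMSO vehicle control viability.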

SMILES: COc1ccc([C@@H](O)c2cc(-c3ncnc4cc(N5CCOCC5)ccc34)c(F)cc2Cl)nn1 + CN1CCN(c2cc(C(=O)Nc3cc4cc(-c5cnn(C)c5)ccc4cn3)ccn2)CC1
IC50 (second compound 0.0316 µM): 2400 nM | IC50 (second compound 0.1 µM): 1450 nM | IC50 (second compound 0.316 µM): < 31.6 nM | IC50 (second compound 1 µM): < 31.6 nM | IC50 (second compound 3.16 µM): < 31.6 nM | IC50 (second compound 10 µM): < 31.6 nM | viability, T/C [1]: 109% | viability, T/C [2]: 88.3% | viability, T/C [3]: 91.3% | viability, T/C [4]: 63.6% | viability, T/C [5]: 45.3% | viability, T/C [6]: 19.2% | viability, T/C [7]: 97.5% | viability, T/C [8]: 84% | viability, T/C [9]: 73.5% | viability, T/C [10]: 58.2% | viability, T/C [11]: 35% | viability, T/C [12]: 16.8% | viability, T/C [13]: 15.7% | viability, T/C [14]: 16.9% | viability, T/C [15]: 14.8% | viability, T/C [16]: 13% | viability, T/C [17]: 8.38% | viability, T/C [18]: 2.77% | viability, T/C [19]: 0.13% | viability, T/C [20]: 2% | viability, T/C [21]: 1.91% | viability, T/C [22]: 0.33% | viability, T/C [23]: 1.72% | viability, T/C [24]: 2.7% | viability, T/C [25]: 0.06% | viability, T/C [26]: 1.44% | viability, T/C [27]: 0.99% | viability, T/C [28]: 0.08% | viability, T/C [29]: 3.19% | viability, T/C [30]: 0.56% | viability, T/C [31]: 0.06% | viability, T/C [32]: 2.47% | viability, T/C [33]: 1.95% | viability, T/C [34]: 0.88% | viability, T/C [35]: 2.45% | viability, T/C [36]: 0.51%

SMILES: COc1cccc2c1C(=O)c1c(O)c3c(c(O)c1C2=O)CC(O)(C(=O)CO)CC3OC1CC(N)C(O)C(C)O1 (stereo unspecified) + CN1CCN(c2cc(C(=O)Nc3cc4cc(-c5cnn(C)c5)ccc4cn3)ccn2)CC1
IC50 (second compound 0.0316 µM): < 31.6 nM | IC50 (second compound 0.1 µM): < 31.6 nM | IC50 (second compound 0.316 µM): < 31.6 nM | IC50 (second compound 1 µM): < 31.6 nM | IC50 (second compound 3.16 µM): < 31.6 nM | IC50 (second compound 10 µM): < 31.6 nM | viability, T/C [1]: 43.4% | viability, T/C [2]: 48.3% | viability, T/C [3]: 4.36% | viability, T/C [4]: 0.18% | viability, T/C [5]: 0.09% | viability, T/C [6]: 3.75% | viability, T/C [7]: 30.6% | viability, T/C [8]: 22.5% | viability, T/C [9]: 3.39% | viability, T/C [10]: 0.14% | viability, T/C [11]: 0.09% | viability, T/C [12]: 0.26% | viability, T/C [13]: 11.2% | viability, T/C [14]: 5.67% | viability, T/C [15]: 0.29% | viability, T/C [16]: 0.1% | viability, T/C [17]: 0.2% | viability, T/C [18]: 1.51% | viability, T/C [19]: 0.37% | viability, T/C [20]: 0.13% | viability, T/C [21]: 0.57% | viability, T/C [22]: 2.6% | viability, T/C [23]: 0.76% | viability, T/C [24]: 0.18% | viability, T/C [25]: 0.05% | viability, T/C [26]: 0.07% | viability, T/C [27]: 0.08% | viability, T/C [28]: 1.69% | viability, T/C [29]: 1.88% | viability, T/C [30]: 0.27% | viability, T/C [31]: 0.05% | viability, T/C [32]: 1.66% | viability, T/C [33]: 2.85% | viability, T/C [34]: 0.12% | viability, T/C [35]: 1.59% | viability, T/C [36]: 0.51%

IC50 (second compound 0.0316 µM): 1730 nM | IC50 (second compound 0.1 µM): 1110 nM | IC50 (second compound 0.316 µM): 1260 nM | IC50 (second compound 1 µM): 1020 nM | IC50 (second compound 3.16 µM): < 31.6 nM | IC50 (second compound 10 µM): < 31.6 nM
SMILES: C=C(F)C(=O)N1CCN(c2nc(OCC3CCCN3C)nc3c2CCN(c2cccc4cccc(Cl)c24)C3)CC1CC#N (stereo unspecified) + CNC(=O)c1ccc(Nc2nc(OC3CCCC3)c3c(-c4ccc5nc(C)oc5c4)c[nH]c3n2)c(OC)c1
viability, T/C [1]: 70.9% | viability, T/C [2]: 92.6% | viability, T/C [3]: 76.5% | viability, T/C [4]: 87.4% | viability, T/C [5]: 15.2% | viability, T/C [6]: 0.17% | viability, T/C [7]: 45.3% | viability, T/C [8]: 56.5% | viability, T/C [9]: 54.9% | viability, T/C [10]: 59% | viability, T/C [11]: 11.4% | viability, T/C [12]: 2.23% | viability, T/C [13]: 46.7% | viability, T/C [14]: 49.5% | viability, T/C [15]: 77.3% | viability, T/C [16]: 66.5% | viability, T/C [17]: 10% | viability, T/C [18]: 0.09% | viability, T/C [19]: 59.3% | viability, T/C [20]: 53.3% | viability, T/C [21]: 43.9% | viability, T/C [22]: 50.9% | viability, T/C [23]: 3.8% | viability, T/C [24]: 0.09% | viability, T/C [25]: 48.2% | viability, T/C [26]: 33.5% | viability, T/C [27]: 37.1% | viability, T/C [28]: 42.6% | viability, T/C [29]: 2.84% | viability, T/C [30]: 0.11% | viability, T/C [31]: 39.2% | viability, T/C [32]: 37% | viability, T/C [33]: 28.7% | viability, T/C [34]: 40.4% | viability, T/C [35]: 1.02% | viability, T/C [36]: 4.8%
